Assay [1] has as its target T1, GPR40 (Homo sapiens, UniProt O14842). Kind of assay: Aequorin luminescence in response to compounds. Also noted: expressed in transfected cells. Format: cell-based. As to conditions: FIG. 2; as a function of concentration; compared with fatty acid ligands. The text has this: FIG. 2 is a graph showing Aequorin luminescence in response to various compounds as a function of concentration.

For assay [2], the target named is T1, GPR40. Kind of assay: Cell-based aequorin assay (CHO cells stably expressing GPR40 and aequorin). Also noted: expressed in transfected cells; host or cells: CHO cells stably transfected with GPR40 and aequorin. As to conditions: for EC50: activation of human GPR40, CHO cells, 0.01% HSA. The procedure, abridged:
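CHO cells stably co-expressing GPR40 and aequorin, loaded with coelenterazine (1 ug/mL, 2 h, room temperature) in H/HBSS with 20 mM Hepes and 0.01% fatty acid-free HSA. Serially diluted compounds added; luminescence recorded over 20 s. EC50 from dose-response of maximum relative light units.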

In assay [3] the target is T1, GPR40. Kind of assay: Inositol phosphate accumulation assay (A9_GPR40 cells). Set-up: expressed in transfected cells; host or cells: CHO cells stably transfected with GPR40 and aequorin. Format: cell-based. The note with it: inositol phosphate assay, A9_GPR40 cells, 1 hour; read-out: IP3 EC50. The procedure, abridged:
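A9 cells stably expressing GPR40 were labelled 16 h with 1 μCi/mL ^3H-inositol in inositol-free DMEM with dialysed FBS. Compounds in HBSS/10 mM LiCl with HSA were applied for 1 h at 37° C, then quenched with 20 mM formic acid. Accumulated [^3H] inositol phosphates were counted by SPA.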

Assay [4] deals with fetal rat intestinal cells isolated from E19 rat embryos. Put plainly: GLP-1 secretion into culture medium from fetal rat intestinal cells. In kind it is cell-based. As to conditions: FIG. 5-7; cultured cells treated with serial dilutions of compound. The protocol: FIG. 5 is a graph showing the concentration of GLP-1 secreted into culture medium as a function of the amount of Example compounds 14 and 69.8. The GLP-1 was secreted from fetal rat intestinal cells isolated from E19 rat embryos. The cultured cells were treated with serial dilutions of the indicated compounds, and GLP-1 secreted into the culture medium was determined.
FIG. 6 is a graph showing the concentration of GLP-1 secreted into culture medium as a function of the amount of Example compound 66.6. The GLP-1 was secreted from fetal rat intestinal cells isolated from E19 rat embryos. The cultured cells were treated with serial dilutions of the indicated compound, and GLP-1 secreted into the culture medium was determined.
FIG. 7 is a graph showing the concentration of GLP-1 secreted into culture medium as a function of the amount of Example compounds 14, 66.17, 77.3, and 83.1. The GLP-1 was secreted from fetal rat intestinal cells isolated from E19 rat embryos. The cultured cells were treated with serial dilutions of the indicated compounds, and GLP-1 secreted into the culture medium was determined.

T1 sequence (O14842 whole entry): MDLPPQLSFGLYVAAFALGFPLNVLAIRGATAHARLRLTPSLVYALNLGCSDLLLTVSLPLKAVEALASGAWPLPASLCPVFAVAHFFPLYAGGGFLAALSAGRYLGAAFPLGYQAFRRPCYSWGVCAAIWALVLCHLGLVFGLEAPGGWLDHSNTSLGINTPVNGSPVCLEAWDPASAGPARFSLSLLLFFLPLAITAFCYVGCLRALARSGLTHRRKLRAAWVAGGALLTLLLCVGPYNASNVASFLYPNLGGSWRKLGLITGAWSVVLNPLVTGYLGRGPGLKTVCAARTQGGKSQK

For orientation: EC50 means the concentration at which the effect is half-maximal. For `COc1ccc(F)c(-c2ccc(COc3cccc([C@@H](CC(=O)O)C4CC4)c3)cc2C2CCCC2(C)C)c1` (single isomer, unassigned) [Example 66.4, (3S)-3-Cyclopropyl-3-(3-(((2-(2,2-dimethylcyclopentyl)-2′-fluoro-5′-(methyloxy)-1,1′-biphenyl-4-yl)methyl)oxy)phenyl)propanoic acid or (3R)-3-cyclopropyl-3-(3-(((2-(2,2-dimethylcyclopentyl)-2′-fluoro-5′-(methyloxy)-1,1′-biphenyl-4-yl)methyl)oxy)phenyl)propanoic acid], the Aequorin luminescence result at GPR40 [1] was “equivalent to naturally occurring fatty acid ligands”. Moreover, the EC50 on GPR40 [2] is 100 to 1000 nM; on GPR40 [3], less than 10 nM. The “agonist type in aequorin assay” value at GPR40 [2] (compared with α-linolenic acid and docosahexaenoic acid, FIG. 2) was “potent full agonists”.

`COc1ccc(F)c(-c2ccc(COc3cccc([C@@H](CC(=O)O)C4CC4)c3)cc2CC(C)(C)C)c1` (single isomer, unassigned) [Example 66.17, (3S)-3-Cyclopropyl-3-(3-(((2-(2,2-dimethylpropyl)-2′-fluoro-5′-(methyloxy)-1,1′-biphenyl-4-yl)methyl)oxy)phenyl)propanoic acid or (3R)-3-cyclopropyl-3-(3-(((2-(2,2-dimethylpropyl)-2′-fluoro-5′-(methyloxy)-1,1′-biphenyl-4-yl)methyl)oxy)phenyl)propanoic acid]: the “concentration of GLP-1 secreted into culture medium” value (“concentration” for short) in assay [4] is given as “significantly stimulated GLP-1 secretion”. The EC50 is 10 to 100 nM at GPR40 [2] and less than 10 nM at GPR40 [3].

In the case of `COc1ccc(F)c(-c2ccc(COc3cccc([C@@H](CC(=O)O)CC4CC4)c3)cc2[C@H]2CCCC2(C)C)c1` (single isomer, unassigned) [Example 69.8], in assay [4], the “concentration” value is reported as “significantly stimulated GLP-1 secretion”. The 50% effective concentration (EC50) on GPR40 [2] was 10 to 100 nM; on GPR40 [3] it was less than 10 nM.

On to `COc1ccc(F)c(-c2ccc(COc3cccc(C(CC(=O)O)C4CC4)c3)cc2C2CCCC2(C)C)c1` (single isomer, unassigned) [Example 66.6], for which the “concentration” value in assay [4] is “significantly stimulated GLP-1 secretion”. Further, the values for the concentration giving a half-maximal response (EC50) at GPR40 [2] and on GPR40 [3] were 10 to 100 nM and less than 10 nM, respectively.

As for `COc1ccc(F)c(-c2ccc(COc3cccc(C(CC(=O)O)C4CC4)c3F)cc2C2CCCC2(C)C)c1` (single isomer, unassigned) [Example 83.1], the “concentration” value in assay [4] is listed as “significantly stimulated GLP-1 secretion”. In addition, the figures for the EC50 at GPR40 [2] and at GPR40 [3] were 10 to 100 nM and less than 10 nM, respectively.

On to `CCC(CC(=O)O)c1cccc(OCc2ccc(-c3cc(OC)ccc3F)c(C3CCCC3(C)C)c2)c1F` (single isomer, unassigned) [Example 77.3], for which the “concentration” value in assay [4] is “significantly stimulated GLP-1 secretion”. Also, the EC50 at GPR40 [2] is 100 to 1000 nM; at GPR40 [3], less than 10 nM.

As for `COc1ccc(F)c(-c2ccc(COc3cccc(C(C)CC(=O)O)c3)cc2/C=C/C(C)(C)C)c1` (single isomer, unassigned) [Example 64.4, (3R)-3-(3-(((2-((1E)-3,3-Dimethyl-1-butenyl)-2′-fluoro-5′-(methyloxy)-1,1′-biphenyl-4-yl)methyl)oxy)phenyl)butanoic acid or (3S)-3-(3-(((2-((1E)-3,3-dimethyl-1-butenyl)-2′-fluoro-5′-(methyloxy)-1,1′-biphenyl-4-yl)methyl)oxy)phenyl)butanoic acid], the EC50 on GPR40 [2] was in the range of 100 to 1000 nM; at GPR40 [3] it was 10 to 100 nM.

For `COc1ccc(F)c(-c2ccc(COc3cccc([C@@H](CC(=O)O)C4CC4)c3)cc2C2N(C)CCCC2(C)C)c1` (single isomer, unassigned) [Example 66.40, (S)-3-Cyclopropyl-3-{3-[2′-fluoro-5′-methoxy-2-(1,3,3-trimethyl-piperidin-2-yl)-biphenyl-4-ylmethoxy]-phenyl}-propionic acid or (R)-3-cyclopropyl-3-{3-[2′-fluoro-5′-methoxy-2-(1,3,3-trimethyl-piperidin-2-yl)-biphenyl-4-ylmethoxy]-phenyl}-propionic acid], the EC50 on GPR40 [2] is 100 to 1000 nM; on GPR40 [3], 10 to 100 nM.

As to `COc1cc(-c2ccc(COc3cccc(C(CC(=O)O)CC4CC4)c3F)cc2C2CCCC2(C)C)c(F)cn1` (single isomer, unassigned) [Example 84.8], the EC50 at GPR40 [2] was 100 to 1000 nM; on GPR40 [3], less than 10 nM.

On to `COc1ccc(F)c(-c2ccc(COc3cccc([C@@H](CC(=O)O)C4CC4)c3)cc2CN2[C@H](C)CC[C@H]2C)c1` (single isomer, unassigned) [Example 66.71, (3S)-3-Cyclopropyl-3-(3-(((2-(((2R,5R)-2,5-dimethyl-1-pyrrolidinyl)methyl)-2′-fluoro-5′-(methyloxy)-1,1′-biphenyl-4-yl)methyl)oxy)phenyl)propanoic acid or (3R)-3-cyclopropyl-3-(3-(((2-(((2R,5R)-2,5-dimethyl-1-pyrrolidinyl)methyl)-2′-fluoro-5′-(methyloxy)-1,1′-biphenyl-4-yl)methyl)oxy)phenyl)propanoic acid], for which the EC50 at GPR40 [2] and on GPR40 [3] was 100 to 1000 nM throughout.

In the case of `CCC(CC(=O)O)c1cccc(OCc2ccc(-c3cc(OC)ccc3F)c(C3CCCCC3(C)C)c2)c1` (single isomer, unassigned) [Example 78.11], the EC50 was 10 to 100 nM at GPR40 [2] and less than 10 nM on GPR40 [3].

For the compound `COc1ccc(F)c(-c2ccc(COc3cccc(C(CC(=O)O)CC4CC4)c3F)cc2C2=CCCC2(C)C)c1` (single isomer, unassigned) [Example 84.5, (3R)-4-Cyclopropyl-3-(3-(((2-(5,5-dimethyl-1-cyclopenten-1-yl)-2′-fluoro-5′-(methyloxy)-1,1′-biphenyl-4-yl)methyl)oxy)-2-fluorophenyl)butanoic acid or (3S)-4-cyclopropyl-3-(3-(((2-(5,5-dimethyl-1-cyclopenten-1-yl)-2′-fluoro-5′-(methyloxy)-1,1′-biphenyl-4-yl)methyl)oxy)-2-fluorophenyl)butanoic acid], the results for the 50% effective concentration (EC50) at GPR40 [2] and on GPR40 [3] were 100 to 1000 nM and 10 to 100 nM, respectively.

Regarding `COc1ccc(F)c(-c2ccc(COc3cccc([C@@H](CC(=O)O)CC4CC4)c3)cc2SC(C)C)c1` (single isomer, unassigned) [Example 69.24, (R)-4-Cyclopropyl-3-[3-(2′-fluoro-2-isopropylsulfanyl-5′-methoxy-biphenyl-4-ylmethoxy)-phenyl]-butyric acid or (S)-4-cyclopropyl-3-[3-(2′-fluoro-2-isopropylsulfanyl-5′-methoxy-biphenyl-4-ylmethoxy)-phenyl]-butyric acid], the half-maximal effective concentration (EC50) is 100 to 1000 nM on GPR40 [2] and 10 to 100 nM on GPR40 [3].

Turning to `COc1ccc(F)c(-c2ccc(COc3cccc(CCC(=O)O)c3)cc2C2=CCCC2)c1` [Example 39, 3-[3-(2-Cyclopent-1-enyl-2′-fluoro-5′-methoxy-biphenyl-4-ylmethoxy)-phenyl]-propionic acid], the EC50 at GPR40 [2] lay within 1000 to 10000 nM; on GPR40 [3], 100 to 1000 nM.

As for `COc1ccc(F)c(-c2ccc(COc3cccc(C(CC(=O)O)C4CCC4)c3)cc2C2CCCC2(C)C)c1` (single isomer, unassigned) [Example 79.3], the EC50 on GPR40 [2] fell in the range of 100 to 1000 nM; on GPR40 [3], 10 to 100 nM.

As to `COc1ccc(F)c(-c2ccc(COc3cccc([C@@H](CC(=O)O)C4CC4)c3)cc2[C@@H](OCc2ccccc2)C(C)(C)C)c1` (single isomer, unassigned) [Example 66.28], the values for the EC50 at GPR40 [2] and at GPR40 [3] were 100 to 1000 nM and less than 10 nM, respectively.

With `CCC(C)(C)C(OC)c1cc(COc2cccc(C(CC(=O)O)CC3CC3)c2)ccc1-c1cc(OC)ccc1F` (single isomer, unassigned) [Example 69.42], the concentration for a half-maximal effect (EC50) was 100 to 1000 nM on GPR40 [2] and less than 10 nM on GPR40 [3].

`CC1(C)CCC[C@@H]1c1cc(COc2cccc([C@@H](CC(=O)O)C3CC3)c2F)ccc1-c1cc(F)ccc1F` (single isomer, unassigned) [Example 83.25]: the EC50 lay in the range of 100 to 1000 nM at GPR40 [2] and 10 to 100 nM on GPR40 [3].

For the compound `COc1ccc(F)c(-c2ccc(COc3cccc(CCC(=O)O)c3)cc2OC(F)(F)F)c1` [Example 38, 3-[3-(2′-Fluoro-5′-methoxy-2-trifluoromethoxy-biphenyl-4-ylmethoxy)-phenyl]-propionic acid], the EC50 at GPR40 [2] is 100 to 1000 nM; at GPR40 [3] it was 1000 to 10000 nM.

These data come from patent US8030354B2, “Substituted biphenyl GPR40 modulators” (Amgen Inc., priority 2007, dated 2011).
